Patent US9434724B2, “Quinuclidines for modulating alpha 7 activity” (priority 2014, dated 2016)

Tests used:
CYP2C9 = CYP2C9 (Homo sapiens (Human), UniProt P11712); assay: Cytochrome P450 inhibition in human liver microsomes, CYP2C9; settings: read-out: 2C9 IC50, Protocol 2
Human plasma stability = type: in vitro ADME; settings: human, plasma, pH 7.4; for % Remaining @ 2 h: 1 μM
Description: Protocol 1: Studies were carried out in human plasma. All plasma was obtained from Bioreclamation and collected on sodium heparin. Plasma was adjusted to pH 7.4. A DMSO stock was first prepared for the test compound. An aliquot of the DMSO solution was dosed into 1 mL of plasma, which had been pre-warmed to 37° C., at a final test compound concentration of 1 μM. The vials were kept in a benchtop Thermomixer® for the duration of the experiment. Aliquots (100 μL) were taken at each time point (0, 15, 30, 60, and 120 minutes) and added to 96-well plates which had been pre-filled with 300 μL of acetonitrile. Samples were stored at 4° C. until the end of the experiment. After the final time point was sampled, the plate was mixed and then centrifuged at 3,000 rpm for 10 minutes. Aliquots of the supernatant were removed, diluted 1:1 into distilled water, and analyzed by LC-MS/MS. The peak area response ratio to internal standard (PARR) of the compound at 15, 30, 60 and 120 minutes was compared to the PARR at time 0 to determine the percent of test compound remaining at each time point. Half-lives were calculated using GraphPad software, fitting to a single-phase exponential decay equation.
Protocol 2: Studies were carried out in plasma. Plasma was prepared under approval of IRB and IACUC on sodium heparin. The pH of plasma was monitored and used within the range of pH 7.4 to pH 8.0. DMSO stocks were prepared for the test compounds. Aliquots of the DMSO solutions were diluted to 0.05 mM by 0.05 mM Sodium phosphate buffer with 0.5% BSA. Then 10 μL of 0.05 mM solutions were dosed into 90 μL of plasma in duplicates (n=2), which had been pre-warmed to 37° C., at a final test compound concentration of 5 μM. The plates were kept in a 37° C. water bath for the duration of the experiment. At each time point (0, 5, 15, 30, 45, 60, and 120 minutes), 400 μL of acetonitrile was added into corresponding wells. After the final time point was sampled, the plates were shaken at the vibrator (IKA, MTS 2/4) for 10 min (600 rpm/min) and then centrifuged at 5594 g for 15 min (Thermo Multifuge×3R). Aliquots of the supernatant were removed, diluted 1:1 into distilled water, and analyzed by LC-MS/MS. The peak area response ratio to internal standard (PARR) of the compounds at 5, 15, 30, 45, 60, and 120 minutes was compared to the PARR at time 0 to determine the percent of test compound remaining at each time point. Half-lives were calculated using Excel software, fitting to a single-phase exponential decay equation.

[1] = Metabolic stability assay in rat liver microsomes (RLM); type: in vitro ADME; settings: rat, microsomes, 1 μM, pH 7.4
Description: (§1) Protocol 1: Studies were carried out in human and rat liver microsomes (“HLM” and “RLM,” respectively). Human and rat liver microsomes were purchased from BD Gentest. DMSO stocks were prepared for the test compounds. Aliquots of the DMSO solutions were diluted to 0.5 mM by acetonitrile, then further diluted by liver microsomes/buffer to 1.5 μM. 30 μL of 1.5 μM solutions were mixed with 15 μL of 6 mM NADPH, which had been pre-warmed to 37° C., at a final test compound concentration of 1 μM. The plates were kept in a 37° C. water bath for the duration of the experiment. At each time point (0, 5, 15, 30, 45 minutes), 135 μL of acetonitrile was added into corresponding wells. After the final time point was sampled, the plates were shaken at a vibrator (IKA, MTS 2/4) for 10 min (600 rpm/min) and then centrifuged at 5594 g for 15 min (Thermo Multifuge×3R). Aliquots of the supernatant were removed, diluted 1:1 into distilled water, and analyzed by LC-MS/MS. The peak area response ratio to internal standard (PARR) of the compounds at 5, 15, 30, 45 minutes was compared to the PARR at time 0 to determine the percent of test compound remaining at each time point. Half-lives were calculated using Excel software, fitting to a single-phase exponential decay equation.
(§2) Protocol 2: Studies were carried out in human and rat liver microsomes. Buffer solutions were prepared as follows: Buffer A: 1.0 L of 0.1 M monobasic Potassium Phosphate buffer containing 1.0 mM EDTA; Buffer B: 1.0 L of 0.1 M Dibasic Potassium Phosphate buffer containing 1.0 mM EDTA; Buffer C: 0.1 M Potassium Phosphate buffer, 1.0 mM EDTA, pH 7.4 by titrating 700 mL of buffer B with buffer A while monitoring with a pH meter.
(§3) Reference compound (Ketanserin) and test compound spiking solutions were prepared as follows: 500 μM spiking solution: add 10 μL of 10 mM DMSO stock solution into 190 μL ACN; 1.5 μM spiking solution in microsomes (0.75 mg/mL): add 1.5 μL of 500 μM spiking solution and 18.75 μL of 20 mg/mL liver microsomes into 479.75 μL of Buffer C.
(§4) NADPH stock solution (6 mM) was prepared by dissolving NADPH into buffer C.
(§5) Assay procedure: 30 μL of 1.5 μM spiking solution containing 0.75 mg/mL microsomes solution was dispensed to the wells designated for […]. The plate was pre-incubated at 37° C. for 10 minutes. 15 μL of NADPH stock solution (6 mM) was added to the wells designated as Time 45, and the timer was started. At 30 mM, 15 mM, and 5 mM, 15 μL NADPH stock solution (6 mM) was added to the wells, respectively. At the end of incubation (0 mM), 135 μL of ACN containing IS was added to all the wells. Then 15 μL of NADPH stock solution (6 mM) was added to the wells designated as Time 0. After quenching, the reaction mixtures were centrifuged at 3220 g for […]. Following centrifugation, 50 μL of the supernatant was transferred from each well into a 96-well sample plate containing 50 μL of ultra-pure water (Millipore) for LC/MS analysis. The peak area response (PARR) ratio to internal standard of the compounds at 5, 15, 30, and 45 minutes was compared to the PARR at time 0 to determine the percent of test compound remaining at each time point. Half-lives were calculated using Excel software, fitting to a single-phase exponential decay equation.

[2] = Metabolic stability assay in human liver microsomes (HLM); type: in vitro ADME; settings: human, microsomes, 1 μM, pH 7.4
Description: as §1, §2, §3, §4, §5

CYP2C19 = CYP2C19 (Homo sapiens (Human), UniProt P33261); assay: Cytochrome P450 inhibition in human liver microsomes, CYP2C19; settings: read-out: 2C19 IC50, Protocol 2
Chain of CYP2C19 (P33261 whole entry): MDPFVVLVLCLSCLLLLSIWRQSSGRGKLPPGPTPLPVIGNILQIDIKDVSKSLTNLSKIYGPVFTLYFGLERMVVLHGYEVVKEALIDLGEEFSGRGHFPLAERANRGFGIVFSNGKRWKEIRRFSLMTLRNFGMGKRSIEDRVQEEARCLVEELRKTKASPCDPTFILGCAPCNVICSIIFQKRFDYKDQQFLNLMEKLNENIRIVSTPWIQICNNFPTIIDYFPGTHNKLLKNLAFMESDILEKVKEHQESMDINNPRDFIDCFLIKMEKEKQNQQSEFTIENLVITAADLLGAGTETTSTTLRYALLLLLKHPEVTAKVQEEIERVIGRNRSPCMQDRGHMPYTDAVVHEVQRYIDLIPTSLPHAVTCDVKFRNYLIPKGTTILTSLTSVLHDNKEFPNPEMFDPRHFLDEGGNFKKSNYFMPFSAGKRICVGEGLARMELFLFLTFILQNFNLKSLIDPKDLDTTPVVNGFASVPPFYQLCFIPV

CYP1A2 = CYP1A2 (Homo sapiens (Human), UniProt P05177); assay: Cytochrome P450 inhibition in human liver microsomes, CYP1A2; settings: read-out: 1A2 IC50, Protocol 2
Chain of CYP1A2 (P05177 whole entry): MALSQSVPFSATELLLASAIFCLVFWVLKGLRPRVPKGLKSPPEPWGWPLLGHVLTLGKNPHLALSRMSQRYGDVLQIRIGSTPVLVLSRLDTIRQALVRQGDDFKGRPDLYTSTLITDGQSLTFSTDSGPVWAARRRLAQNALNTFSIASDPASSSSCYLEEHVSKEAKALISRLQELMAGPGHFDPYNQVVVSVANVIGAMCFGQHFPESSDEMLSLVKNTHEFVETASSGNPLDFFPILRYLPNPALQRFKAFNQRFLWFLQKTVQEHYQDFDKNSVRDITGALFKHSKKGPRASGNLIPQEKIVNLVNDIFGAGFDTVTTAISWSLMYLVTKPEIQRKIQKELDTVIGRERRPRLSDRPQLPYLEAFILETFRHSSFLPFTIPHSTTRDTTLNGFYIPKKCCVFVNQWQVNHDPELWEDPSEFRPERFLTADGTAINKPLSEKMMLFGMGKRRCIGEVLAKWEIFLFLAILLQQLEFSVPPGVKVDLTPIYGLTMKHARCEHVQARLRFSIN

[3] = target: rat brain nicotinic receptor (α7 NAChR) (Rattus norvegicus (Rat), UniProt Q05941); type: binding
Chain of rat brain nicotinic receptor (α7 NAChR) (Q05941 23-502 limits assumed): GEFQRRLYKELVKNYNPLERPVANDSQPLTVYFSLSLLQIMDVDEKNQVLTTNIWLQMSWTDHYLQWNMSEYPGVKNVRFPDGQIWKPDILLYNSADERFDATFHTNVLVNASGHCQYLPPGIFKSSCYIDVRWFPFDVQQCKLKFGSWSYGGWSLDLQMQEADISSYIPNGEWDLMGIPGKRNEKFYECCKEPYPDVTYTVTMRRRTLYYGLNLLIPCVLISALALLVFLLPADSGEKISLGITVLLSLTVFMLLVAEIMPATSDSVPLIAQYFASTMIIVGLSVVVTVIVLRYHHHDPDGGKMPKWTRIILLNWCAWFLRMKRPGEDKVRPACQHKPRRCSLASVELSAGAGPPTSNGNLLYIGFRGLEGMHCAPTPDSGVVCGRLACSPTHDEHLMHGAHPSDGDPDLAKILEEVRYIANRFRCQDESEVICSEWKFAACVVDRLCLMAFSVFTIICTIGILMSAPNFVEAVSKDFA

CYP3A4 = CYP3A4 (Homo sapiens (Human), UniProt P08684); assay: Cytochrome P450 inhibition in human liver microsomes, CYP3A4; settings: read-out: 3A4 IC50 (Midazolam), substrate midazolam, Protocol 2
Chain of CYP3A4 (P08684 whole entry): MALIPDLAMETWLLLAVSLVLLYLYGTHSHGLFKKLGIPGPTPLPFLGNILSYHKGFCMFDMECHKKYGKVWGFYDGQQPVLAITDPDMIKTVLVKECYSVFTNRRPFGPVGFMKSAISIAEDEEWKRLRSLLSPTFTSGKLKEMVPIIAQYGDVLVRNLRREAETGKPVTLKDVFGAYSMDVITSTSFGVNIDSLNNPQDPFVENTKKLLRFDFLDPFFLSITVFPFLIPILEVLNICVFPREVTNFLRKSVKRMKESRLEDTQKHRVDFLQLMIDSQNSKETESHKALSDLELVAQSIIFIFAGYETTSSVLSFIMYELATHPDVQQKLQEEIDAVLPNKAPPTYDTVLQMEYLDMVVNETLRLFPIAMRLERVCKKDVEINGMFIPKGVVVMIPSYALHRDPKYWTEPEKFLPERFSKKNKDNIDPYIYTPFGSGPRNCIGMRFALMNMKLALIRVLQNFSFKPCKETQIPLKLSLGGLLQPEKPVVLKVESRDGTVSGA

Chain of CYP2C9 (P11712 whole entry): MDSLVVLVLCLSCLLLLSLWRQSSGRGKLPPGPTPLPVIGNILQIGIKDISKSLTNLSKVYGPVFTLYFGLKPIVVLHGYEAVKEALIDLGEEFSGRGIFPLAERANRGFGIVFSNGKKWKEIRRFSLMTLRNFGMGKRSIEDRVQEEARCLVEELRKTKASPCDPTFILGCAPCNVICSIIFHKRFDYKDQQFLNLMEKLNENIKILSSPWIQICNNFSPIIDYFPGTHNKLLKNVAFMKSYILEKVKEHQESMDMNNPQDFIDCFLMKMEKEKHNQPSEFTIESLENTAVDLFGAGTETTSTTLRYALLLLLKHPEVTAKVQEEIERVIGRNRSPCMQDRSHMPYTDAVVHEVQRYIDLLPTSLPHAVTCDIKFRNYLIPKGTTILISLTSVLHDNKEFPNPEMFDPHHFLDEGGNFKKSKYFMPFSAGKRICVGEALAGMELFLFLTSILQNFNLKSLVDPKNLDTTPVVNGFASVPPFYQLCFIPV

## N#Cc1ccc2c(C(=O)OCC34CCN(CC3)CC4)c[nH]c2c1 [Compound 28, quinuclidin-4-ylmethyl 6-cyano-1H-indole-3-carboxylate]
CYP2C9
  IC50: > 10000 nM
Human plasma stability
  % Remaining @ 2 h: 79%
  half-life at 1 μM: > 120 min
[1]
  RLM: 28.4342 mL/min/kg
[2]
  HLM: <13.608 mL/min/kg
CYP2C19
  IC50: > 10000 nM
CYP1A2
  IC50: > 10000 nM

## COc1ccc2[nH]cc(C(=O)OCC34CCN(CC3)CC4)c2c1C [Compound 34, quinuclidin-4-ylmethyl 5-methoxy-4-methyl-1H-indole-3-carboxylate]
CYP2C9
  IC50: > 10000 nM
Human plasma stability
  % Remaining @ 2 h: 55%
  half-life at 1 μM: > 120 min
[1]
  RLM: 125.64 mL/min/kg
[2]
  HLM: <13.608 mL/min/kg
CYP2C19
  IC50: > 10000 nM
CYP1A2
  IC50: > 10000 nM
[3]
  IC50: 23.6 nM
  Ki: 20.4 nM

## O=C(OCC12CCN(CC1)CC2)c1c[nH]c2cc(F)ccc12 [Compound 11, quinuclidin-4-ylmethyl 6-fluoro-1H-indole-3-carboxylate]
[1]
  RLM: 97.6892 mL/min/kg
CYP3A4
  IC50: > 10000 nM
[2]
  HLM: <13.608 mL/min/kg
CYP1A2
  IC50: > 10000 nM
[3]
  IC50: 261 nM
  Ki: 228 nM

## COc1ccc2[nH]cc(C(=O)OCC34CCN(CC3)CC4)c2c1 [Compound 18, quinuclidin-4-ylmethyl 5-methoxy-1H-indole-3-carboxylate]
CYP2C9
  IC50: > 10000 nM
Human plasma stability
  % Remaining @ 2 h: 5.8%
  half-life at 1 μM: 29.2 min
[1]
  RLM: 47.8757 mL/min/kg
[2]
  HLM: <13.608 mL/min/kg
CYP2C19
  IC50: > 10000 nM
CYP1A2
  IC50: > 10000 nM
[3]
  IC50: 32.6 nM
  Ki: 28.3 nM

## COc1ccc2c(C(=O)OCC34CCN(CC3)CC4)c[nH]c2c1 [Compound 10, quinuclidin-4-ylmethyl 6-methoxy-1H-indole-3-carboxylate]
Human plasma stability
  half-life at 1 μM: > 120 min
[1]
  RLM: 36.72 mL/min/kg
[2]
  HLM: <13.608 mL/min/kg
CYP1A2
  IC50: > 10000 nM

## COc1cccc2[nH]cc(C(=O)OCC34CCN(CC3)CC4)c12 [Compound 36, quinuclidin-4-ylmethyl 4-methoxy-1H-indole-3-carboxylate]
Human plasma stability
  % Remaining @ 2 h: 2.5%
  half-life at 1 μM: 28 min
[1]
  RLM: 52.02 mL/min/kg
[2]
  HLM: <13.608 mL/min/kg
CYP1A2
  IC50: > 10000 nM
[3]
  IC50: 48.9 nM
  Ki: 42.3 nM
